{
  "source": "patent US8293791B2",
  "about": "“Method of neuroprotection by pharmacological inhibition of AMP-activated protein kinase” (priority 2004, dated 2012)",
  "key": {"male C57B6 mice [1]": {"system": "male C57B6 mice", "assay": "Infarction volume (TTC staining) after 2-hr reversible MCAO with 22 hr reperfusion", "type": "in vivo, mouse", "experimental": "Cerebral ischemia was induced by 120 minutes of reversible right middle cerebral artery occlusion (MCAO) under halothane anesthesia followed by reperfusion for various times for male C57B6 mice (Charles River) or male rats, as described by McCullough, et al., Stroke, 32, 796-802 (2001) and McCullough, et al., J. Neuroscience, 24, pp. 257-268 (2004), respectively. Intra-ischemic and 22 hour post-reperfusion neurological deficits (NDS) were scored as follows: 0, no deficit; 1, forelimb weakness and torso turning to the ipsilateral side when held by tail; 2, circling to affected side; 3, unable to bear weight on affected side; and 4, no spontaneous locomotor activity or barrel rolling. Any animal without deficit was excluded from the study. At end-ischemia, the animal was briefly re-anaesthetized and reperfusion was initiated by filament withdrawal. Sham animals were subjected to the equivalent surgical preparation, but the suture was not advanced into the internal carotid. For the pharmacological neuroprotection studies, mice survived 22 hours after reperfusion, at which time behavioral scoring was done. The brain was then harvested for pathological examination with TTC histology (see Histopathology section). In separate animal cohorts, physiological measurements, femoral arterial blood pressure and cortical perfusion (laser Doppler flowmetry) were evaluated throughout MCAO and early reperfusion as described in the 2001 McCullough paper referenced above. Additional animals were exposed to ischemia or sham surgery after pharmacological or vehicle treatment and were sacrificed at 4 or 24 hours for Western blot analysis. Male nNOS and PARP-1 deficient mice (see, Huang, et al., Science, 265, 1883-1885 (1994); Eliasson, et al, Nat. Med, 3, 1089-1095 (1997)) were subjected to 2-hour right MCAO or sham surgery and compared to additional WT cohorts (C57-BL6 for nNOS−/− and SVEV for PARP−/−). Infarction volume was analyzed by 2,3,5-triphenyltetrazolium staining in five 2-mm slices. Infarction volume was determined by video microscopy and image analysis (Inquiry 3, Loats Associates), as previously described by McCullough, et al., J. Neuroscience 23, pp. 8701-8705 (2003). All data are expressed as mean±SEM. Physiological variables and histology were analyzed by 1-way ANOVA with a post-hoc Newman-Keuls to correct for multiple comparisons. Post-ischemic neurological scores were analyzed by the Mann-Whitney U test. Values were considered statistically significant at *, p<0.05; **, p<0.01; ***, p<0.001"}, "male C57B6 mice [2]": {"system": "male C57B6 mice", "assay": "Neurological deficit score (NDS) after MCAO", "type": "in vivo, mouse", "experimental": "Cerebral ischemia was induced by 120 minutes of reversible right middle cerebral artery occlusion (MCAO) under halothane anesthesia followed by reperfusion for various times for male C57B6 mice (Charles River) or male rats, as described by McCullough, et al., Stroke, 32, 796-802 (2001) and McCullough, et al., J. Neuroscience, 24, pp. 257-268 (2004), respectively. Intra-ischemic and 22 hour post-reperfusion neurological deficits (NDS) were scored as follows: 0, no deficit; 1, forelimb weakness and torso turning to the ipsilateral side when held by tail; 2, circling to affected side; 3, unable to bear weight on affected side; and 4, no spontaneous locomotor activity or barrel rolling. Any animal without deficit was excluded from the study. At end-ischemia, the animal was briefly re-anaesthetized and reperfusion was initiated by filament withdrawal. […] In separate animal cohorts, physiological measurements, femoral arterial blood pressure and cortical perfusion (laser Doppler flowmetry) were evaluated throughout MCAO and early reperfusion as described in the 2001 McCullough paper referenced above. […]\nAll data are expressed as mean±SEM. Physiological variables and histology were analyzed by 1-way ANOVA with a post-hoc Newman-Keuls to correct for multiple comparisons. Post-ischemic neurological scores were analyzed by the Mann-Whitney U test. […]"}, "[3]": {"system": "AMPKα phosphorylation (pAMPK)", "assay": "Western blot analysis of pAMPK levels in brain hemispheres after MCAO or sham surgery", "type": "in vivo, mouse", "experimental": "Cerebral ischemia was induced by 120 minutes of reversible right middle cerebral artery occlusion (MCAO) under halothane anesthesia followed by reperfusion for various times for male C57B6 mice (Charles River) or male rats, as described by McCullough, et al., Stroke, 32, 796-802 (2001) and McCullough, et al., J. Neuroscience, 24, pp. 257-268 (2004), respectively. Intra-ischemic and 22 hour post-reperfusion neurological deficits (NDS) were scored as follows: 0, no deficit; 1, forelimb weakness and torso turning to the ipsilateral side when held by tail; 2, circling to affected side; 3, unable to bear weight on affected side; and 4, no spontaneous locomotor activity or barrel rolling. Any animal without deficit was excluded from the study. At end-ischemia, the animal was briefly re-anaesthetized and reperfusion was initiated by filament withdrawal. Sham animals were subjected to the equivalent surgical preparation, but the suture was not advanced into the internal carotid. For the pharmacological neuroprotection studies, mice survived 22 hours after reperfusion, at which time behavioral scoring was done. The brain was then harvested for pathological examination with TTC histology (see Histopathology section). In separate animal cohorts, physiological measurements, femoral arterial blood pressure and cortical perfusion (laser Doppler flowmetry) were evaluated throughout MCAO and early reperfusion as described in the 2001 McCullough paper referenced above. Additional animals were exposed to ischemia or sham surgery after pharmacological or vehicle treatment and were sacrificed at 4 or 24 hours for Western blot analysis. Male nNOS and PARP-1 deficient mice (see, Huang, et al., Science, 265, 1883-1885 (1994); Eliasson, et al, Nat. Med, 3, 1089-1095 (1997)) were subjected to 2-hour right MCAO or sham surgery and compared to additional WT cohorts (C57-BL6 for nNOS−/− and SVEV for PARP−/−). Mouse and rat stroke and sham brain samples were obtained by rapid removal of the brain from the skulk resection of the cerebellum, followed by immediate dissection into the right (R) and left (L) hemispheres. Samples were flash frozen in liquid nitrogen. Samples from rats were further sub-dissected into core and penumbral regions for both hemispheres. Samples were stored at −80° C. until use. […] SDS detergent was added to a final concentration of 0.2%, and lysates were boiled for 5 min. After the supernatant was harvested, protein concentration was determined using a BCA kit (Bio Rad). 40 μg of protein was loaded per lane on a 4-15% gradient SDS-polyacrylamide gel, and transferred to a polyvinylidene difluoride membrane. Blots were successively probed, stripped and reprobed for antigen detection. Phosphorylation of AMPKα was determined using an anti-phospho-AMPKα (α1 and α2 Thr) antibody (1:1000, Cell Signaling). ACC (1:500), p-ACC (1:1000), pAkt (1:500), and Akt (1:500) antibodies were obtained from Upstate, Lake Placid, N.Y. Anti-AMPKα antibody (anti-α1 and α2, 1:1000; Cell Signaling), hsp-70 (1:1000; Santa Cruz), and β-actin (1:5000; Sigma) were used as loading controls. All blots were incubated overnight in primary antibody at 4° C. in TBS buffer containing 5% BSA and 0.1% Triton-X-100. The secondary antibody (goat anti-rabbit IgG, Chemicon) was diluted to 1:5,000, and ECL (pico) detection kit was used for signal detection."}, "male C57B6 mice [4]": {"system": "male C57B6 mice", "assay": "Physiological measurements, arterial blood pressure and laser Doppler flow during MCAO and early reperfusion", "conditions": "for MAP: averaged over the 2 hours of ischemia (all); for MAP / LDF (% BL) / HCO3 / Hg / PCO2 / PO2 / Ph: n=4/group; for LDF (% BL) / HCO3 / Hg / PCO2 / PO2 / Ph: intra-ischemic; for LDF (% BL): averaged over the 2 hours of ischemia"}, "male C57B6 mice [5]": {"system": "male C57B6 mice", "conditions": "mouse, in vivo"}},
  "note": "“Also recorded” adds a separate entry of the source. Like-named read-outs stand apart in the source and are kept apart here.",
  "data": [
    {"molecule": "C=C1C(=O)OC(CCCCCCCC)C1C(=O)O", "note": "(stereo not drawn) [C75]", "values": [
      {"measurement": "total and regional infarction volume", "setting": "male C57B6 mice [1]; C75 20 mg/kg i.p. immediately prior to onset of ischemia, vs vehicle (RPMI), p<0.001", "result": "significant reduction"},
      {"measurement": "behavioral scores (score 0-4)", "setting": "male C57B6 mice [2]; C75 20 mg/kg i.p. immediately prior to onset of ischemia, vehicle 3.2±0.05", "result": "2.0±0.03"},
      {"measurement": "increase in pAMPK levels at 4 hr (2 hr of reperfusion)", "setting": "[3]; C75 treated mice vs vehicle, 2-hour MCAO", "result": "blunted"},
      {"measurement": "pAMPK levels 24 hr following stroke", "setting": "[3]; C75 treated vs vehicle, both sham and stroke mice", "result": "reduced; also recorded: Reductions"},
      {"measurement": "LDF or physiological variables, vs vehicle", "setting": "male C57B6 mice [4]; C75 20 mg/kg i.p., n=4", "result": "no differences"},
      {"measurement": "MAP", "setting": "male C57B6 mice [4]", "result": "79.1 ± 6.5"},
      {"measurement": "LDF (% BL)", "setting": "male C57B6 mice [4]", "result": "10.6 ± 0.88", "unit": "% BL"},
      {"measurement": "HCO3", "setting": "male C57B6 mice [4]", "result": "22.8 ± 1.2"},
      {"measurement": "Hg", "setting": "male C57B6 mice [4]", "result": "12.9 ± 0.5"},
      {"measurement": "PCO2", "setting": "male C57B6 mice [4]", "result": "47 ± 7.1"},
      {"measurement": "PO2", "setting": "male C57B6 mice [4]", "result": "135 ± 14.2"},
      {"measurement": "Ph", "setting": "male C57B6 mice [4]", "result": "7.34 ± 0.08"}
    ]},
    {"molecule": "NC(=O)c1ncn([C@@H]2O[C@H](CO)[C@@H](O)[C@H]2O)c1N", "note": "[AICAR, 5-aminoimidazole-4-carboxamide ribonucleoside]", "values": [
      {"measurement": "total and cortical (CTX) stroke volumes", "setting": "male C57B6 mice [1]; AICAR 500 mg/kg i.p. at stroke onset, vs vehicle", "result": "significant exacerbation"},
      {"measurement": "pAMPK by 24 hr", "setting": "[3]; AICAR treated animals", "result": "returned to baseline"},
      {"measurement": "pAMPK 4 hr following stroke (2 hours of reperfusion)", "setting": "[3]; AICAR treated vs vehicle treated animals", "result": "elevations"},
      {"measurement": "CBF at 30 minutes after reperfusion", "setting": "male C57B6 mice [5]", "result": "82.7 % of baseline"},
      {"measurement": "HCO3", "setting": "male C57B6 mice [5]", "result": "22.9 ± 2.3"},
      {"measurement": "Hg", "setting": "male C57B6 mice [5]", "result": "13.4 ± 0.9"},
      {"measurement": "LDF (% BL)", "setting": "male C57B6 mice [5]", "result": "11.1 ± 1.2", "unit": "% BL"},
      {"measurement": "MAP", "setting": "male C57B6 mice [5]", "result": "77.7 ± 7.3 (all)"},
      {"measurement": "PCO2", "setting": "male C57B6 mice [5]", "result": "39.7 ± 4.9"},
      {"measurement": "PO2", "setting": "male C57B6 mice [5]", "result": "128 ± 15.2"},
      {"measurement": "Ph", "setting": "male C57B6 mice [5]", "result": "7.33 ± 0.11"},
      {"measurement": "intraischemic CBF, vs controls", "setting": "male C57B6 mice [5]", "result": "no differences"},
      {"measurement": "mean arterial pressure (MAP) at 15 minutes after injection", "setting": "male C57B6 mice [5]", "result": 69, "unit": "mmHg"}
    ]},
    {"molecule": "c1cc(-c2cnn3cc(-c4ccc(OCCN5CCCCC5)cc4)cnc23)ccn1", "note": "[Compound C]", "values": [
      {"measurement": "cortical (CTX) infarct volume", "setting": "male C57B6 mice [1]; Compound C 20 mg/kg i.p. at stroke onset, 2-hr MCAO, 22 hr reperfusion, vehicle 63±3.4", "result": "19.4±3.3", "unit": "% non-ischemic hemisphere"},
      {"measurement": "striatal (CP) infarct volume", "setting": "male C57B6 mice [1]; Compound C 20 mg/kg i.p. at stroke onset, 2-hr MCAO, 22 hr reperfusion, vehicle 64±5.7", "result": "21±3.9", "unit": "% non-ischemic hemisphere"},
      {"measurement": "total infarct volume", "setting": "male C57B6 mice [1]; Compound C 20 mg/kg i.p. at stroke onset, 2-hr MCAO, 22 hr reperfusion, vs vehicle", "result": "significantly reduced"},
      {"measurement": "severity of behavioral deficits at 24 hours (score 0-4)", "setting": "male C57B6 mice [2]; Compound C 20 mg/kg i.p. at stroke onset, vehicle 3.3±0.3", "result": "1.9±0.2"},
      {"measurement": "pAMPK levels 4 hr after infarction (2 hours of reperfusion)", "setting": "[3]; Compound C treated mice vs vehicle, 2 hours MCAO", "result": "reduced"},
      {"measurement": "relative cerebral blood flow (CBF) by laser Doppler, intraischemic and during the 30 minutes after reperfusion, vs vehicle", "setting": "male C57B6 mice [4]; Compound C 20 mg/kg i.p.", "result": "no difference"},
      {"measurement": "relative cerebral blood flow (CBF) by laser Doppler, intraischemic period", "setting": "male C57B6 mice [4]; Compound C 20 mg/kg i.p., vehicle 9.8±0.54, p=n.s.", "result": "10.6±0.9 % of baseline"},
      {"measurement": "MAP", "setting": "male C57B6 mice [4]", "result": "82.2 ± 5.9"},
      {"measurement": "LDF (% BL)", "setting": "male C57B6 mice [4]", "result": "10.6 ± 0.9", "unit": "% BL"},
      {"measurement": "HCO3", "setting": "male C57B6 mice [4]", "result": "23.1 ± 0.08"},
      {"measurement": "Hg", "setting": "male C57B6 mice [4]", "result": "12.7 ± 1.3"},
      {"measurement": "PCO2", "setting": "male C57B6 mice [4]", "result": "42.1 ± 3.1"},
      {"measurement": "PO2", "setting": "male C57B6 mice [4]", "result": "144.6 ± 14.3"},
      {"measurement": "Ph", "setting": "male C57B6 mice [4]", "result": "7.36 ± 0.07"}
    ]}
  ]
}
